Test results published in patent US5061794A, “Cephalosporin derivatives, and antibacterial agents” (priority 1986, dated 1991).
In brackets after ≈: the same amount, converted by molar mass. Like-named read-outs stand apart in the source and are kept apart here.

Tests used:
A. calcoaceticus No. 4 = test: in vitro antibacterial activity, agar plate dilution method (MIC); type: cell-based, Acinetobacter calcoaceticus; conditions: Acinetobacter calcoaceticus, NO.4, 16 h, 10^6 CFU/ml
Procedure: (§1) The in vitro antibacterial activities of the compounds of the present invention against various microorganisms, were measured by the following agar plate dilution method. One platinum loopfull of each test microorganism incubated overnight in Mueller Hinton broth, was inoculated to Mueller Hinton agar (inoculum size: 10^6 CFU/ml). Such culture media containing various antibiotics in various concentrations were prepared. After incubation at 37° C. for 16 hours, the minimum inhibitory concentrations (MIC: μg/ml) were measured.

Ps. aeruginosa AK 109 = test: as above; type: cell-based, Pseudomonas aeruginosa; conditions: Pseudomonas aeruginosa, AK109, 16 h
Procedure: as §1

Ps. aeruginosa AKR17 = test: as above; type: cell-based, Pseudomonas aeruginosa; conditions: Pseudomonas aeruginosa, read-out: Minimum Inhibitory Concentration (MIC)
Procedure: as §1

Ps. aeruginosa IF03445 = test: as above; type: cell-based, Pseudomonas aeruginosa; conditions: Pseudomonas aeruginosa, 10^6 CFU/ml
Procedure: as §1

P. vulgaris HX-19 = test: as above; type: cell-based; conditions: Proteus vulgaris, HX19, 16 h, P. vulgaris HX-19; 10^6 CFU/ml; read-out: Minimum Inhibitory Concentration (MIC)
Procedure: as §1

K. pneumoniae PCI-602 = test: as above; type: cell-based; conditions: Klebsiella pneumoniae, PCI602, 16 h, 10^6 CFU/ml
Procedure: as §1

K. pneumoniae No. 42 = test: as above; type: cell-based; conditions: Klebsiella pneumoniae, 10^6 CFU/ml
Procedure: as §1

E. cloacae 963 = test: as above; type: cell-based; conditions: 10^6 CFU/ml
Procedure: as §1

S. aureus 209P NIHJ-JC1 = test: as above; type: cell-based; conditions: Staphylococcus aureus, 16 h, S. aureus 209P NIHJ-JC1; 10^6 CFU/ml, 37° C., 16 hours; read-out: Minimum Inhibitory Concentration (MIC)
Procedure: as §1

S. marcescens IAM 1184 = test: as above; type: cell-based; conditions: Serratia marcescens, IAM1184, 16 h, read-out: Minimum Inhibitory Concentration (MIC)
Procedure: as §1

M. morganii GN5407 = test: as above; type: cell-based; conditions: Morganella morganii, 10^6 CFU/ml
Procedure: as §1

E. cloacae Nek 39 = test: as above; type: cell-based; conditions: Enterobacter cloacae, NEK39, 16 h, 10^6 CFU/ml
Procedure: as §1

E. coli GN5482 = test: as above; type: cell-based; conditions: Escherichia coli, 10^6 CFU/ml
Procedure: as §1

S. marcescens No. 16-2 = test: as above; type: cell-based; conditions: Serratia marcescens, NO.162, 16 h
Procedure: as §1

E. coli NIHJ JC2 = test: as above; type: cell-based; conditions: Escherichia coli
Procedure: as §1

P. vulgaris No. 33 = test: as above; type: cell-based; conditions: Proteus vulgaris, NO.33, 16 h, read-out: Minimum Inhibitory Concentration (MIC), *P. vulgaris No. 33, lactamase-producing strain; 10^6 CFU/ml
Procedure: as §1

K. oxytoca GN10650 = test: as above; type: cell-based; conditions: Klebsiella oxytoca, 10^6 CFU/ml
Procedure: as §1

Ps. cepacia 23 = test: as above; type: cell-based, Pseudomonas cepacia; conditions: Burkholderia cepacia, 16 h; Ps. cepacia 23; 10^6 CFU/ml; read-out: Minimum Inhibitory Concentration (MIC)
Procedure: as §1

E. coli CSH(RE45) = test: microbe, parasite or virus in culture; type: cell-based; conditions: Escherichia coli, 16 h, read-out: Minimum Inhibitory Concentration (MIC), *E. coli CSH(RE45), lactamase-producing strain; 10^6 CFU/ml
Procedure: as §1

E. coli CSH2 (RK1) = test: microbe, parasite or virus in culture; type: cell-based; conditions: Escherichia coli, 16 h, read-out: Minimum Inhibitory Concentration (MIC), *E. coli CSH2 (RK1), lactamase-producing strain; 10^6 CFU/ml
Procedure: as §1

[1] = read-out: Minimum Inhibitory Concentration (MIC), A. calcoaceticus No. 4
[2] = read-out: Minimum Inhibitory Concentration (MIC), K. pneumoniae PCI-602
[3] = NO.42, 16 h, read-out: Minimum Inhibitory Concentration (MIC), *K. pneumoniae No. 42, lactamase-producing strain
[4] = Enterobacter cloacae, 16 h, E. cloacae 963, read-out: Minimum Inhibitory Concentration (MIC)
[5] = S. marcescens IAM 1184, 10^6 CFU/ml
[6] = GN5407, 16 h, read-out: Minimum Inhibitory Concentration (MIC), *M. morganii GN5407, lactamase-producing strain
[7] = read-out: Minimum Inhibitory Concentration (MIC), *E. cloacae Nek 39, lactamase-producing strain
[8] = GN5482, 16 h, read-out: Minimum Inhibitory Concentration (MIC), *E. coli GN5482, lactamase-producing strain
[9] = read-out: Minimum Inhibitory Concentration (MIC), *S. marcescens No. 16-2, lactamase-producing strain, 10^6 CFU/ml
[10] = NIHJJC2, 16 h, read-out: Minimum Inhibitory Concentration (MIC), E. coli NIHJ JC2, 10^6 CFU/ml, 37° C.
[11] = read-out: Minimum Inhibitory Concentration (MIC)
[12] = 16 h, Ps. aeruginosa AKR17, 10^6 CFU/ml
[13] = 16 h, Ps. aeruginosa IF03445, read-out: Minimum Inhibitory Concentration (MIC)
[14] = 16 h, *K. oxytoca GN10650, lactamase-producing strain, read-out: Minimum Inhibitory Concentration (MIC)

Row | SMILES | MIC (A. calcoaceticus No. 4; [1]) | MIC (P. vulgaris HX-19) | MIC (K. pneumoniae PCI-602; [2]) | MIC (K. pneumoniae No. 42; [3]) | MIC (E. cloacae 963; [4]) | MIC (S. aureus 209P NIHJ-JC1) | MIC (S. marcescens IAM 1184; [5]) | MIC (M. morganii GN5407; [6]) | MIC (E. cloacae Nek 39; [7]) | MIC (E. coli GN5482; [8]) | MIC (S. marcescens No. 16-2; [9]) | MIC (E. coli NIHJ JC2; [10]) | MIC (P. vulgaris No. 33) | MIC (Ps. cepacia 23) | MIC (E. coli CSH(RE45)) | MIC (E. coli CSH2 (RK1)) | MIC (Ps. aeruginosa AK 109; [11]) | MIC (Ps. aeruginosa AKR17; [12]) | MIC (Ps. aeruginosa IF03445; [13]) | MIC (K. oxytoca GN10650; [14]) | other results
1 | CC(=O)Oc1ccc(-c2nc(SCC3=C(C(=O)O)N4C(=O)C(NC(=O)C(=NOC5(C(=O)O)CC5)c5csc(N)n5)C4SC3)sc2CC(=O)O)cc1OC(C)=O (stereo not shown) [Example 60 (II), trisodium 3-[4-(3,4-diacetoxyphenyl)-5-carboxylate-methylthiazol-2-yl]thiomethyl-78-[2-(2-aminothiazol-4-yl)-2-(1-carboxylate-1-cyclopropoxyimino)acetamido]-3-cephem-4-carboxylate] | 0.1 µg/mL | < 0.006 µg/mL | < 0.006 µg/mL | 0.1 µg/mL | 0.2 µg/mL | 25 µg/mL | 0.05 µg/mL | 0.1 µg/mL | 0.2 µg/mL | 0.78 µg/mL | 0.78 µg/mL | 0.78 µg/mL | 0.025 µg/mL | < 0.006 µg/mL | 3.12 µg/mL | 0.0125 µg/mL | – | – | – | – | MIC (Ps. aeruginosa AK 109; read-out: Minimum Inhibitory Concentration (MIC), Ps. aeruginosa AK 109, 10^6 CFU/ml): 1.56 µg/mL; MIC (Ps. aeruginosa AKR17; AKR17, 16 h): 3.12 µg/mL; MIC (Ps. aeruginosa IF03445; IF03445, 16 h, read-out: Minimum Inhibitory Concentration (MIC), Ps. aeruginosa IF03445): 0.78 µg/mL; MIC (K. oxytoca GN10650; GN10650, 16 h, read-out: Minimum Inhibitory Concentration (MIC), *K. oxytoca GN10650, lactamase-producing strain): 0.1 µg/mL
2 | CON=C(C(=O)NC1C(=O)N2C(C(=O)O)=C(CSc3nc(-c4ccc(OC(C)=O)c(OC(C)=O)c4)cs3)CSC12)c1csc(N)n1 (stereo not drawn) [compound 40, sodium 3-[4-(3,4-diacetoxyphenyl)-thiazol-2-yl]thiomethyl-7β-[2-(2-aminothiazol-4-yl)-2-methoxviminoacetamido]-3-cephem-4-carboxvlate] | 0.78 µg/mL | 0.0125 µg/mL | < 0.006 µg/mL | 0.2 µg/mL | – | 1.56 µg/mL | 0.1 µg/mL | 0.1 µg/mL | 0.39 µg/mL | 0.78 µg/mL | 6.25 µg/mL | 0.2 µg/mL | 0.1 µg/mL | – | 0.2 µg/mL | 0.025 µg/mL | 3.12 µg/mL | < 100 µg/mL | 1.56 µg/mL | 1.56 µg/mL | MIC (E. cloacae 963; Enterobacter cloacae, 963, 16 h, read-out: Minimum Inhibitory Concentration (MIC), E. cloacae 963): 0.05 µg/mL
3 | CC(C)(O/N=C(\C(=O)N[C@@H]1C(=O)N2C(C(=O)O)=C(CSc3nnc(-c4ccc(O)cc4)o3)CS[C@H]12)c1csc(N)n1)C(=O)O [compound 4, disodium 7β-[2-(2-aminothiazol-4-yl)-2-(1-carboxylate-1-methylethoxyimino)acetamido]-3-[5-(4-hydroxyphenyl)-1,3,4-oxadiazol-2-yl]thiomethyl-3-cephem-4-carboxylate, reference compound] | – | 0.1 µg/mL | 0.1 µg/mL | – | 3.12 µg/mL | 6.25 µg/mL | – | 0.78 µg/mL | 12.5 µg/mL | – | – | – | 0.2 µg/mL | – | 0.78 µg/mL | 0.78 µg/mL | 12.5 µg/mL | > 100 µg/mL | 25 µg/mL | 1.56 µg/mL | MIC (A. calcoaceticus No. 4; A. calcoaceticus No. 4, read-out: Minimum Inhibitory Concentration (MIC)): 25 µg/mL; MIC (K. pneumoniae No. 42; 16 h, *K. pneumoniae No. 42, lactamase-producing strain, read-out: Minimum Inhibitory Concentration (MIC)): 1.56 µg/mL; MIC (S. marcescens IAM 1184): 0.78 µg/mL; MIC (E. coli GN5482; 16 h, *E. coli GN5482, lactamase-producing strain, read-out: Minimum Inhibitory Concentration (MIC)): 1.56 µg/mL; MIC (S. marcescens No. 16-2; [11]): 12.5 µg/mL; MIC (E. coli NIHJ JC2; NIHJJC2, E. coli NIHJ JC2, 10^6 CFU/ml, 37° C., 16 hours, read-out: Minimum Inhibitory Concentration (MIC)): 3.12 µg/mL
4 | CO/N=C(\C(=O)N[C@@H]1C(=O)N2C(C(=O)O)=C(COC(C)=O)CS[C@H]12)c1csc(N)n1 [cefotaxime, reference compound] | – | < 0.006 µg/mL | – | – | 0.05 µg/mL (≈ 0.11 µM) | 1.56 µg/mL (≈ 3.43 µM) | – | – | – | – | – | – | – | 6.25 µg/mL (≈ 13.7 µM) | – | 0.0125 µg/mL (≈ 0.0274 µM) | – | – | 2.5 µg/mL (≈ 5.49 µM) | – | MIC (Ps. aeruginosa AK 109; Ps. aeruginosa AK 109, 10^6 CFU/ml, read-out: Minimum Inhibitory Concentration (MIC)): 12.5 µg/mL (≈ 27.4 µM); MIC (K. pneumoniae PCI-602; K. pneumoniae PCI-602, read-out: Minimum Inhibitory Concentration (MIC)): < 0.006 µg/mL; MIC (S. marcescens IAM 1184): 0.0125 µg/mL (≈ 0.0274 µM); MIC (M. morganii GN5407; 16 h, *M. morganii GN5407, lactamase-producing strain, read-out: Minimum Inhibitory Concentration (MIC)): 0.05 µg/mL (≈ 0.11 µM); MIC (E. cloacae Nek 39; *E. cloacae Nek 39, lactamase-producing strain, read-out: Minimum Inhibitory Concentration (MIC)): 1.56 µg/mL (≈ 3.43 µM); MIC (S. marcescens No. 16-2; *S. marcescens No. 16-2, lactamase-producing strain, 10^6 CFU/ml, read-out: Minimum Inhibitory Concentration (MIC)): 6.25 µg/mL (≈ 13.7 µM)
